≈ marks a conversion by molar mass, not a printed value.
Tests used:
Assay in all cases: In vitro antibacterial evaluation: minimum inhibitory concentration (MIC), broth dilution method
Format in all cases: cell-based
Enterococcus sp. = tested on: Enterococcus sp.
In short: (§1)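 Susceptibility determined by NCCLS-recommended broth dilution (M7-A2), Muller-Hinton II […]. Concentration span 64-0.06 μg/mL, inoculum 5×10^5 CFU/mL. Isolates include strains resistant to methicillin, penicillin and/or vancomycin.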

Streptococcus sp. = tested on: Streptococcus sp.
In short: as §1

Escherichia coli = tested on: Escherichia coli
In short: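 Test strains, among them recent clinical isolates carrying methicillin, penicillin and/or vancomycin resistance, were inoculated at 5×10^5 CFU/mL. A broth dilution series spanning 64-0.06 μg/mL in Muller-Hinton II […] (NCCLS M7-A2) defined the MIC as the lowest growth-inhibiting concentration.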

Staphylococcus sp. = conditions: broth dilution, 18 hours at 35° C.
In short: as §1

[1] = broth dilution, inoculum 5×10^5 CFU/mL, 18 hours at 35° C.

MIC Enterococcus avium (GC 4558) (Enterococcus sp.; [1]): 2 µg/mL (≈ 1.36 µM) | MIC Enterococcus faecalis (ATCC 29212) (Enterococcus sp.; [1]): 2 µg/mL (≈ 1.36 µM) | MIC Enterococcus faecalis (GC 2242) (Enterococcus sp.; [1]): 2 µg/mL (≈ 1.36 µM) | MIC Enterococcus faecalis (GC 2691) (Enterococcus sp.; [1]): 2 µg/mL (≈ 1.36 µM) | MIC Enterococcus faecalis (GC 3059) (Enterococcus sp.; [1]): 2 µg/mL (≈ 1.36 µM) | MIC Enterococcus faecalis (GC 4552) (Enterococcus sp.; [1]): 2 µg/mL (≈ 1.36 µM) | MIC Enterococcus faecalis (GC 4553) (Enterococcus sp.; [1]): 2 µg/mL (≈ 1.36 µM) | MIC Enterococcus faecalis (GC 4554) (Enterococcus sp.; [1]): 2 µg/mL (≈ 1.36 µM) | MIC Enterococcus faecalis (GC 6189) (Enterococcus sp.; [1]): 2 µg/mL (≈ 1.36 µM) | MIC Enterococcus faecium (GC 2243) (Enterococcus sp.; [1]): 2 µg/mL (≈ 1.36 µM) | MIC Enterococcus faecium (GC 4556) (Enterococcus sp.; [1]): 2 µg/mL (≈ 1.36 µM) | MIC Enterococcus faecium (GC 4557) (Enterococcus sp.; [1]): 1 µg/mL (≈ 0.678 µM) | MIC Enterococcus faecalis (ATCC 29212) (Enterococcus sp.; strain ATCC 29212): 2 µg/mL (≈ 1.36 µM) | MIC Enterococcus faecalis (GC 2242) (Enterococcus sp.; strain GC 2242): 2 µg/mL (≈ 1.36 µM) | MIC Enterococcus faecium (GC 2243) (Enterococcus sp.; strain GC 2243): 2 µg/mL (≈ 1.36 µM) | MIC Enterococcus faecalis (GC 2691) (Enterococcus sp.; strain GC 2691): 2 µg/mL (≈ 1.36 µM) | MIC Enterococcus faecalis (GC 3059) (Enterococcus sp.; strain GC 3059): 2 µg/mL (≈ 1.36 µM) | MIC Enterococcus faecalis (GC 4552) (Enterococcus sp.; strain GC 4552): 2 µg/mL (≈ 1.36 µM) | MIC Enterococcus faecalis (GC 4553) (Enterococcus sp.; strain GC 4553): 2 µg/mL (≈ 1.36 µM) | MIC Enterococcus faecalis (GC 4554) (Enterococcus sp.; strain GC 4554): 2 µg/mL (≈ 1.36 µM) | MIC Enterococcus faecium (GC 4556) (Enterococcus sp.; strain GC 4556): 2 µg/mL (≈ 1.36 µM) | MIC Enterococcus faecium (GC 4557) (Enterococcus sp.; strain GC 4557): 1 µg/mL (≈ 0.678 µM) | MIC Enterococcus avium (GC 4558) (Enterococcus sp.; strain GC 4558): 2 µg/mL (≈ 1.36 µM) | MIC Enterococcus faecalis (GC 6189) (Enterococcus sp.; strain GC 6189): 2 µg/mL (≈ 1.36 µM) | MIC Streptococcus agalactiae (GC 4564) (Streptococcus sp.; [1]): <0.12 µg/mL | MIC Streptococcus pneumoniae (ATCC 6301) (Streptococcus sp.; [1]): <0.12 µg/mL | MIC Streptococcus pneumoniae (GC 1894) (Streptococcus sp.; [1]): <0.12 µg/mL | MIC Streptococcus pneumoniae (GC 4565) (Streptococcus sp.; [1]): <0.12 µg/mL | MIC Streptococcus pyogenes (GC 4563) (Streptococcus sp.; [1]): 0.5 µg/mL (≈ 0.339 µM) | MIC Streptococcus pneumoniae (ATCC 6301) (Streptococcus sp.; strain ATCC 6301): <0.12 µg/mL | MIC Streptococcus pneumoniae (GC 1894) (Streptococcus sp.; strain GC 1894): <0.12 µg/mL | MIC Streptococcus pyogenes (GC 4563) (Streptococcus sp.; strain GC 4563): 0.5 µg/mL (≈ 0.339 µM) | MIC Streptococcus agalactiae (GC 4564) (Streptococcus sp.; strain GC 4564): <0.12 µg/mL | MIC Streptococcus pneumoniae (GC 4565) (Streptococcus sp.; strain GC 4565): <0.12 µg/mL | MIC Escherichia coli (ATCC 25922) (Escherichia coli; strain ATCC 25922): 64 µg/mL (≈ 43.4 µM) | MIC Escherichia coli (GC 4559) (Escherichia coli; strain GC 4559): 16 µg/mL (≈ 10.9 µM) | MIC Escherichi coli (GC 4560) (Escherichia coli; strain GC 4560): 0.5 µg/mL (≈ 0.339 µM) | MIC Coagulase Negative Staphylococcus (GC 4547) (Staphylococcus sp.; 5×10^5 CFU/mL): 2 µg/mL (≈ 1.36 µM) | MIC Coagulase Negative Staphylococcus (GC 4548) (Staphylococcus sp.; 5×10^5 CFU/mL): 0.5 µg/mL (≈ 0.339 µM) | MIC Coagulase Negative Staphylococcus (GC 4549) (Staphylococcus sp.; 5×10^5 CFU/mL): 0.5 µg/mL (≈ 0.339 µM) | MIC Coagulase Negative Staphylococcus (GC 4551) (Staphylococcus sp.; 5×10^5 CFU/mL): 1 µg/mL (≈ 0.678 µM) | MIC Staphylococcus aureus (ATCC 29213) (Staphylococcus sp.; 5×10^5 CFU/mL): 1 µg/mL (≈ 0.678 µM) | MIC Staphylococcus aureus (GC 1131) (Staphylococcus sp.; 5×10^5 CFU/mL): 1 µg/mL (≈ 0.678 µM) | MIC Staphylococcus aureus (GC 3051) (Staphylococcus sp.; 5×10^5 CFU/mL): 1 µg/mL (≈ 0.678 µM) | MIC Staphylococcus aureus (GC 3053) (Staphylococcus sp.; 5×10^5 CFU/mL): 1 µg/mL (≈ 0.678 µM) | MIC Staphylococcus aureus (GC 4541) (Staphylococcus sp.; 5×10^5 CFU/mL): 1 µg/mL (≈ 0.678 µM) | MIC Staphylococcus aureus (GC 4542) (Staphylococcus sp.; 5×10^5 CFU/mL): 1 µg/mL (≈ 0.678 µM) | MIC Staphylococcus aureus (GC 4544) (Staphylococcus sp.; 5×10^5 CFU/mL): 2 µg/mL (≈ 1.36 µM) | MIC Staphylococcus aureus (GC 4545) (Staphylococcus sp.; 5×10^5 CFU/mL): 1 µg/mL (≈ 0.678 µM) | MIC Staphylococcus aureus-SMITH (GC 4543) (Staphylococcus sp.; 5×10^5 CFU/mL): 1 µg/mL (≈ 0.678 µM) | MIC Staphylococcus aureus (ATCC 29213) (Staphylococcus sp.; strain ATCC 29213): 1 µg/mL (≈ 0.678 µM) | MIC Staphylococcus aureus (GC 1131) (Staphylococcus sp.; strain GC 1131): 1 µg/mL (≈ 0.678 µM) | MIC Staphylococcus aureus (GC 3051) (Staphylococcus sp.; strain GC 3051): 1 µg/mL (≈ 0.678 µM) | MIC Staphylococcus aureus (GC 3053) (Staphylococcus sp.; strain GC 3053): 1 µg/mL (≈ 0.678 µM) | MIC Staphylococcus aureus (GC 4541) (Staphylococcus sp.; strain GC 4541): 1 µg/mL (≈ 0.678 µM) | MIC Staphylococcus aureus (GC 4542) (Staphylococcus sp.; strain GC 4542): 1 µg/mL (≈ 0.678 µM) | MIC Staphylococcus aureus (GC 4544) (Staphylococcus sp.; strain GC 4544): 2 µg/mL (≈ 1.36 µM) | MIC Staphylococcus aureus (GC 4545) (Staphylococcus sp.; strain GC 4545): 1 µg/mL (≈ 0.678 µM)
Structure (SMILES): CSc1ccc(C2OCC3OC(OC4C(CO)OC(Oc5ccc(CC6NC(=O)C(C(C)c7ccccc7)NC(=O)CNC(=O)C(CO)NC(=O)C(C(O)C7CNC(=N)N7C7OC(CO)C(O)C(O)C7O)NC(=O)C(C(O)C7CNC(=N)N7)NC6=O)cc5)C(O)C4O)C(O)C(O)C3O2)cc1[N+](=O)[O-] (stereo not drawn) [Example 168, Cyclo[glycyl-β-methylphenylalanyl-O-[4-O-[4,6-O-[4-(methylthio)-3-nitrobenzylidene]hexopyranosyl]hexopyranosyl]tyrosyl-3-(2-iminoimidazolidin-4-yl)seryl-3-(3-hexopyranosyl-2-iminoimidazolidin-4-yl)serylseryl]]
MIC Staphylococcus haemolyticus (GC 4546) (Staphylococcus sp.; 5×10^5 CFU/mL): 0.5 µg/mL (≈ 0.339 µM)
